Assay: refractive index (other wavelength) (dimensionless); xn = mol fraction of the nth substance listed
Conditions: 303.15 K, 95.99 kPa, Liquid, Standard Abbe refractometry

OCCOCCOCCO [triethylene glycol] + O
refractive index
Conditions | Wavelength=435.8 nm | Wavelength=486.1 nm | Wavelength=546.1 nm | Wavelength=587.6 nm
x2 = 0 | – | 1.45796 | 1.45455 | 1.45273
x2 = 0.1056 | – | 1.4566 | 1.45317 | 1.45138
x2 = 0.2069 | – | 1.45496 | 1.45155 | 1.44975
x2 = 0.3104 | – | 1.45129 | 1.4479 | 1.44612
x2 = 0.4844 | – | 1.4478 | 1.44445 | 1.44268
x2 = 0.5016 | – | 1.44681 | 1.44347 | 1.4417
x2 = 0.5952 | – | 1.44014 | 1.43687 | 1.43513
x2 = 0.6016 | – | 1.44025 | 1.43697 | 1.43525
x2 = 0.6788 | – | 1.4337 | 1.43047 | 1.42877
x2 = 0.7835 | – | 1.42435 | 1.42118 | 1.41951
x2 = 0.8184 | – | 1.4191 | 1.41598 | 1.41434
x2 = 0.8473 | – | 1.41271 | 1.40964 | –
x2 = 0.8719 | – | 1.40585 | 1.40283 | –
x2 = 0.8926 | – | 1.39821 | 1.39527 | –
x2 = 0.9106 | – | 1.39265 | 1.38973 | –
x2 = 0.9254 | 1.38572 | 1.38237 | 1.37951 | –
x2 = 0.9303 | 1.38707 | 1.38371 | 1.38085 | –
x2 = 0.9391 | 1.38312 | 1.37974 | 1.37691 | –
x2 = 0.951 | 1.37641 | 1.37311 | 1.3703 | –
x2 = 0.9599 | 1.37045 | 1.36721 | 1.36443 | –
x2 = 0.9708 | 1.36235 | 1.3592 | 1.35648 | –
x2 = 0.979 | 1.3573 | 1.35419 | 1.3515 | –
x2 = 0.9867 | 1.35126 | 1.34816 | 1.3455 | –
x2 = 0.9936 | 1.34502 | 1.34197 | 1.33934 | –
